Where a name gives a salt, the structure may show the parent alone.

This is an account of results in US12421211B2, “Heterocyclic compounds” (Hoffmann-La Roche Inc., priority 2021, dated 2025).

This experiment relates to Acinetobacter baumannii ATCC17961. Briefly: Antimicrobial susceptibility testing: 90% growth inhibitory concentration (IC90) determination. In kind it is cell-based. The following applies: Acinetobacter baumannii, ATCC17961, 16 h, 90% growth inhibitory concentration, Acinetobacter baumannii ATCC17961, Iso-Sensitest broth, OD 600 nm over 16 h; read-out: ATCC 17961 IC90. In a few lines: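 Growth inhibition derived in log phase from OD600 kinetics (every 20 minutes, 16h, 35±2° C) of ATCC17961 in Iso-Sensitest medium, inoculum ~5×10^5 CFU/ml. Compounds tested as twofold series, 10 points (e.g. 50 to 0.097 μM final); IC90 and IC50 reported.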

In the case of `COCCn1ncc(-c2ccc(-c3cnc(C(=O)Nc4ccc(C(=O)N5CCNCC5)c(Cl)c4)n3C)c(F)c2F)c1C` [Example E7, N-[3-chloro-4-(piperazine-1-carbonyl)phenyl]-5-[2,3-difluoro-4-[1-(2-methoxyethyl)-5-methyl-pyrazol-4-yl]phenyl]-1-methyl-imidazole-2-carboxamide; 2,2,2-trifluoroacetic acid], the IC90 – broadly, the concentration at which the effect reaches the 90% level – was found to be 0.21 µM.
For `COCCn1ncc(-c2ccc(-c3cnc(C(=O)Nc4ccc(C(=O)N5CCN(C(=O)[C@@H]6C[C@@H](O)CN6)CC5)c(C)c4)n3C)c(F)c2F)c1C` [Example E8, 5-[2,3-difluoro-4-[1-(2-methoxyethyl)-5-methyl-pyrazol-4-yl]phenyl]-N-[4-[4-[(2S,4R)-4-hydroxypyrrolidine-2-carbonyl]piperazine-1-carbonyl]-3-methyl-phenyl]-1-methyl-imidazole-2-carboxamide] the value was 0.2 µM; for `COCCn1ncc(-c2ccc(-c3cnc(C(=O)Nc4ccc(C(=O)N5CCN(C(=O)[C@@H]6C[C@@H](O)CN6)CC5)c(Cl)c4)n3C)c(F)c2F)c1C` [Example E9, N-[3-chloro-4-[4-[(2S,4R)-4-hydroxypyrrolidine-2-carbonyl]piperazine-1-carbonyl]phenyl]-5-[2,3-difluoro-4-[1-(2-methoxyethyl)-5-methyl-pyrazol-4-yl]phenyl]-1-methyl-imidazole-2-carboxamide; 2,2,2-trifluoroacetic acid], 0.065 µM; for `COCCn1ncc(-c2ccc(-c3cnc(C(=O)Nc4ccc(C(=O)NCC5CCNCC5)c(Cl)c4)n3C)c(F)c2F)c1C` [Example E10, N-[3-chloro-4-(4-piperidylmethyl-carbamoyl)phenyl]-5-[2,3-difluoro-4-[1-(2-methoxyethyl)-5-methyl-pyrazol-4-yl]phenyl]-1-methyl-imidazole-2-carboxamide; 2,2,2-trifluoroacetic acid], 0.17 µM.
For `COCCn1ncc(-c2ccc(-c3cnc(C(=O)Nc4ccc(C(=O)N5CCN(C(=O)C6CCNCC6)CC5)c(Cl)c4)n3C)c(F)c2F)c1C` [Example E11, N-[3-chloro-4-[4-(piperidine-4-carbonyl)piperazine-1-carbonyl]phenyl]-5-[2,3-difluoro-4-[1-(2-methoxyethyl)-5-methyl-pyrazol-4-yl]phenyl]-1-methyl-imidazole-2-carboxamide; 2,2,2-trifluoroacetic acid] the value was 0.061 µM; for `Cn1c(-c2ccc(-c3c[nH]nc3C(F)(F)F)c(F)c2)cnc1C(=O)Nc1ccc(C(=O)N2CCN(C(=O)C3CCN(CC(N)=O)CC3)CC2)c(Cl)c1` [Example E12, N-[4-[4-[1-(2-amino-2-oxo-ethyl)piperidine-4-carbonyl]piperazine-1-carbonyl]-3-chloro-phenyl]-5-[3-fluoro-4-[3-(trifluoromethyl)-1H-pyrazol-4-yl]phenyl]-1-methyl-imidazole-2-carboxamide; 2,2,2-trifluoroacetic acid], 0.15 µM; for `COCCn1ncc(-c2ccc(-c3cnc(C(=O)Nc4ccc(C(=O)N5CCN(C(=O)C6CCNCC6)CC5)c(Cl)c4)n3C)c(F)c2F)c1COC` [Example E13, N-[3-chloro-4-[4-(piperidine-4-carbonyl)piperazine-1-carbonyl]phenyl]-5-[2,3-difluoro-4-[1-(2-methoxyethyl)-5-(methoxymethyl)pyrazol-4-yl]phenyl]-1-methyl-imidazole-2-carboxamide; formic acid], 0.38 µM.
With `COCCn1ncc(-c2ccc(-c3cnc(C(=O)Nc4ccc(C(=O)N5CCN(C(=O)CN(C)C)CC5)c(C)c4)n3C)cc2)c1C` [Example E14, N-[4-[4-[2-(dimethylamino)acetyl]piperazine-1-carbonyl]-3-methyl-phenyl]-5-[4-[1-(2-methoxyethyl)-5-methyl-pyrazol-4-yl]phenyl]-1-methyl-imidazole-2-carboxamide], the IC90 came to 0.27 µM.
For `Cc1n[nH]cc1-c1ccc(-c2cnc(C(=O)Nc3ccc(C(=O)N4CCN(C(=O)CN(C)C)CC4)c(Cl)c3)n2C)cc1` [Example E15, N-[3-chloro-4-[4-[2-(dimethylamino)acetyl]piperazine-1-carbonyl]phenyl]-1-methyl-5-[4-(3-methyl-1H-pyrazol-4-yl)phenyl]imidazole-2-carboxamide; formic acid] the value was 0.18 µM; for `Cc1n[nH]c(C)c1-c1ccc(-c2cnc(C(=O)Nc3ccc(C(=O)N4CCN(C(=O)CN(C)C)CC4)c(Cl)c3)n2C)cc1` [Example E16, N-[3-chloro-4-[4-[2-(dimethylamino)acetyl]piperazine-1-carbonyl]phenyl]-5-[4-(3,5-dimethyl-1H-pyrazol-4-yl)phenyl]-1-methyl-imidazole-2-carboxamide], 0.23 µM.
Turning to `COc1ccc(-c2[nH]ncc2-c2ccc(-c3cnc(C(=O)Nc4ccc(C(=O)N5CCN(C(=O)C6CCNCC6)CC5)c(Cl)c4)n3C)c(F)n2)cc1` [Example E17, N-[3-chloro-4-[4-(piperidine-4-carbonyl)piperazine-1-carbonyl]phenyl]-5-[2-fluoro-6-[5-(4-methoxyphenyl)-1H-pyrazol-4-yl]-3-pyridyl]-1-methyl-imidazole-2-carboxamide; formic acid], the IC90 turned out to be 0.71 µM.
As for `Cn1c(-c2ccc(-c3cn[nH]c3)nc2F)cnc1C(=O)Nc1ccc(C(=O)N2CCN(C(=O)C3CCNCC3)CC2)c(Cl)c1` [Example E18, N-[3-chloro-4-[4-(piperidine-4-carbonyl)piperazine-1-carbonyl]phenyl]-5-[2-fluoro-6-(1H-pyrazol-4-yl)-3-pyridyl]-1-methyl-imidazole-2-carboxamide], the IC90 worked out at 0.82 µM.
`Cc1n[nH]cc1-c1ccc(-c2cnc(C(=O)Nc3ccc(C(=O)N4CCN(C(=O)C5CCNCC5)CC4)c(Cl)c3)n2C)c(F)c1F` [Example E19, N-[3-chloro-4-[4-(piperidine-4-carbonyl)piperazine-1-carbonyl]phenyl]-5-[2,3-difluoro-4-(3-methyl-1H-pyrazol-4-yl)phenyl]-1-methyl-imidazole-2-carboxamide]: the IC90 worked out at 0.13 µM.
As for `Cn1cc(-c2ccc(-c3cnc(C(=O)Nc4ccc(C(=O)N5CCN(C(=O)C6CCNCC6)CC5)c(Cl)c4)n3C)c(F)c2F)cn1` [Example E20, N-[3-chloro-4-[4-(piperidine-4-carbonyl)piperazine-1-carbonyl]phenyl]-5-[2,3-difluoro-4-(1-methyl-pyrazol-4-yl)phenyl]-1-methyl-imidazole-2-carboxamide], the IC90 came to 0.53 µM.
In the case of `COCCn1cc(-c2ccc(-c3cnc(C(=O)Nc4ccc(C(=O)N5CCN(C(=O)C6CCNCC6)CC5)c(Cl)c4)n3C)c(F)c2F)cn1` [Example E21, N-[3-chloro-4-[4-(piperidine-4-carbonyl)piperazine-1-carbonyl]phenyl]-5-[2,3-difluoro-4-[1-(2-methoxyethyl)pyrazol-4-yl]phenyl]-1-methyl-imidazole-2-carboxamide], the IC90 came to 0.29 µM.
For `COCCn1ncc(-c2ccc(-c3cnc(C(=O)Nc4ccc(C(=O)N[C@H]5[C@@H]6CN(C(=O)N[C@@H]7CNC[C@H]7O)C[C@@H]65)c(Cl)c4)n3C)c(F)c2F)c1C` [Example E22, (1S,5R)-6-[[2-chloro-4-[[5-[2,3-difluoro-4-[1-(2-methoxyethyl)-5-methyl-pyrazol-4-yl]phenyl]-1-methyl-imidazole-2-carbonyl]amino]benzoyl]amino]-N-[(3R,4R)-4-hydroxypyrrolidin-3-yl]-3-azabicyclo[3.1.0] hexane-3-carboxamide], the concentration for an effect of 90% (IC90) came out at 0.059 µM.
As to `Cn1c(-c2ccc(-c3cn[nH]c3)cc2)cnc1C(=O)Nc1ccc(C(=O)N2CCN(C(=O)C3CCNCC3)CC2)c(Cl)c1` [Example E23, N-[3-chloro-4-[4-(piperidine-4-carbonyl)piperazine-1-carbonyl]phenyl]-1-methyl-5-[4-(1H-pyrazol-4-yl)phenyl] imidazole-2-carboxamide], the IC90 is 0.14 µM.
The figure for `Cn1c(-c2ccc(-c3cn(CCC(N)=O)nc3C(F)(F)F)c(F)c2F)cnc1C(=O)Nc1ccc(C(=O)N2CCN(C(=O)C3CC[N+](C)(C)CC3)CC2)c(Cl)c1` [Example F1, 5-[4-[1-(3-amino-3-oxo-propyl)-3-(trifluoromethyl)pyrazol-4-yl]-2,3-difluoro-phenyl]-N-[3-chloro-4-[4-(1,1-dimethylpiperidin-1-ium-4-carbonyl)piperazine-1-carbonyl]phenyl]-1-methyl-imidazole-2-carboxamide; formate] is 0.33 µM; for `COCCn1ncc(-c2ccc(-c3cnc(C(=O)Nc4ccc(C(=O)N5CCN(C(=O)C6CC[N+](C)(C)CC6)CC5)c(Cl)c4)n3C)c(Cl)c2F)c1C` [Example F2, N-[3-chloro-4-[4-(1,1-dimethylpiperidin-1-ium-4-carbonyl)piperazine-1-carbonyl]phenyl]-5-[2-chloro-3-fluoro-4-[1-(2-methoxyethyl)-5-methyl-pyrazol-4-yl]phenyl]-1-methyl-imidazole-2-carboxamide; formate] it is 0.065 µM; for `COCCn1ncc(-c2ccc(-c3cnc(C(=O)Nc4ccc(C(=O)N5CCN(C(=O)C6CC[N+](C)(C)CC6)CC5)c(Cl)c4)n3C)c(C)c2F)c1C` [Example F3, N-[3-chloro-4-[4-(1,1-dimethylpiperidin-1-ium-4-carbonyl)piperazine-1-carbonyl]phenyl]-5-[3-fluoro-4-[1-(2-methoxyethyl)-5-methyl-pyrazol-4-yl]-2-methyl-phenyl]-1-methyl-imidazole-2-carboxamide; formate] it is 0.12 µM.
As to `Cc1c(-c2ccc(-c3cnc(C(=O)Nc4ccc(C(=O)N5CCN(C(=O)[C@@H]6C[C@@H](O)C[N+]6(C)C)CC5)c(Cl)c4)n3C)c(F)c2F)cnn1CCC(C)(C)O` [Example F4, N-[3-chloro-4-[4-[(2S,4R)-4-hydroxy-1,1-dimethyl-pyrrolidin-1-ium-2-carbonyl]piperazine-1-carbonyl]phenyl]-5-[2,3-difluoro-4-[1-(3-hydroxy-3-methyl-butyl)-5-methyl-pyrazol-4-yl]phenyl]-1-methyl-imidazole-2-carboxamide; formate], the concentration for an effect of 90% (IC90) was 0.83 µM.
